Experimental data as given in patent US11766060B2, “Compositions comprising mogrosides, steviol glycosides and glycosylated derivatives thereof and methods of enhancing the mouthfeel or sweetness of consumables” (Sweet Green Fields, LLC, priority 2016, dated 2023).

Columns and labels:
[1] = Evaluation of the sweetness detection threshold (8 panelists rate sweet / not sweet); type: in vivo, human; settings: at a 1 ppm level
Excerpt: The phrase “sweetness detection threshold” refers to the minimum concentration at which panelists consisting of 8 persons are able to detect sweetness in a composition, liquid or solid. This is further defined as provided in the Examples herein.
Threshold of sweetness refers to a concentration of a material that below a concentration where sweetness can be detected may still impart a flavor to the consumable (including water). When half of a trained panel of testers determines something is “sweet” at a given concentration, then the sample meets the threshold. When less than half of a panel of testers cannot discern sweetness at a given concentration, then concentrations of the substance below the sweetness level are considered a flavoring.
To evaluate the sweetness potency of various concentrations of GMG or MGV in aqueous solutions, aqueous solutions of GMG and MGV at various concentrations were prepared and were evaluated at room temperature. The sample solutions were evaluated by 8 panelists that were previously qualified for their taste acuity. Samples coded with triple digit numbers were given to a panelist randomly. Panelists tasted the samples randomly. After tasting a sample, every panelist was required to wash their mouth with water and rest for 60 seconds. Panelists gave ratings of “sweet” or “not sweet” to each sample.

[2] = Evaluation of taste profile compared to reference sugar solutions by panel (Example 3 method); type: in vivo, human; settings: inclusion of thaumatin
Protocol: I. The components where mixed and then dissolved in aqueous citric acid (pH 3.8) with ultrasound at room temperature and left to equilibrate for 30 minutes.
The sample solutions were evaluated by 8 panelists that have been previously qualified for their taste acuity. Samples coded with triple digit numbers were given to the panelist randomly. Panelists tasted the samples randomly. After tasting a sample, every panelist was required to rinse their mouth with water and rest for 60 seconds. For the sweetness evaluation of each sample, the sample was tested in pairs with several sugar solutions of given sweetness, such as 5%, 6%, 7%, 8%, 9%, or 10% as standard reference samples. The sweetness of each sample was compared with those of the reference sugar solutions, and the sweetness was evaluated and recorded according to the judgment that the sweetness of the sample was similar to a specific sugar solution or between specific sugar solutions. The results were recorded as the mean value of the results provided by the panels.
For evaluation of taste profile, the samples were tested and were compared to reference sugar solutions. Panelists judged if the taste profile of sample solutions were similar to that of sugar.

[3] = pure thaumatin; cited from earlier work

thaumatin
sweetness imparted to a composition [1]: no sweetness | taste profile of MGV [2]: improved | sweetness threshold [3]: 7 ppm
